One test concerns A549 tumor xenografts. As to the kind of experiment: Human tumor xenograft growing s.c. in athymic nude mice. The format is in vivo, athymic nude mouse. To be noted: 5×/week for 2 weeks, recorded on day 24, * = p<0.05. Here is the method:
(§1) Utilizing this model, one can measure the ability of test compounds to inhibit the growth of human tumor xenografts growing subcutaneously (s.c.) in athymic nude mice. The histologic tumor type employed was MDA-MB-435 breast carcinoma for Ex.1 and 7 and A549 non-small cell lung carcinoma for Ex. 1-3.
A549 non-small cell lung carcinoma: Treatments were started 17 d post-implantation (1×10^7 cells/mouse), when a mean tumor volume of approximately 120 mm^3 was reached. Ex. 1-3 were administered iv on days 17-21 (followed by 2 d rest, then a second cycle of treatment on days 24-28). Total daily doses of 10 or 30 μmol/kg were administered as a single injection. Data in this table were recorded on day 24, 3 d after the last treatment of the first cycle. An asterisk (*) indicates p<0.05 using a one-tailed Student's t-Test.
Toxicity was monitored by recording average group body weights twice weekly, and by daily observation of general health. Efficacy was monitored by taking measurements of tumor length, width, and depth weekly using digital calipers coupled to automated data collectors. […] Anti-tumor activity was expressed as % T/C(Δ MTV of treated group÷Δ MTV of control group×100%). Statistical significance was evaluated using a one-tailed Student's t-test (p<0.05).

Test [1] has as its system MDA-MB-435 human breast carcinoma. As to the kind of experiment: Anchorage Dependent Growth Monolayer Assay (ADGMA), MTS. The format is cell-based. To be noted: MDA-MB-435, 72 h, 3-day exposure, MTS A490, read-out: IC50 (average±S.D.) MDA-MB-435. Here is the method:
As indicated above, all of the compounds of formula I, and their corresponding pharmaceutically acceptable acid addition salts, are anti-tumor agents and are, therefore, useful in inhibiting the growth of various lymphomas, sarcomas, carcinomas, myelomas, and leukemia cell lines. […]
The ADGMA compares the number of viable cells following a 3-day exposure to a test compound relative to a number of cells present at the time the test compound was added. […] The absorbance at 490 nm (A490) of the formazan derivative is proportional to the number of viable cells. […]
Cell lines are trypsinized and counted using a Coulter counter to determine plating densities. […] The number of cells plates as determined in preliminary experiments, results in cell densities of 75-90% of confluency by 4 days after plating. Initial cell densities, assayed one day after plating, are roughly 0.15-0.20 absorbance units greater than the media blank. […] A490 of control plates is read 4 h after MTS addition to determine initial cell density values for each cell line. Three days after addition of test compound, 10 μL/well of MTS mixture is added to the test plates and A490 is read 4 h later. A490 values for wells containing cells are corrected for media absorbance, then normalized to initial density readings to determine percent net growth. […]

The subject of test [2] is MDA-MB-435 tumor xenografts. Description: Human tumor xenograft growing s.c. in athymic nude mice. The format is in vivo, athymic nude mouse. To be noted: 3×/week for 3 weeks, * = p<0.05. The procedure:
as §1
MDA-MB-435 human breast carcinoma: Treatments were started 15 d post implantation (3×10^6 cells/mouse), when a mean tumor volume of approximately 45 mm^3 was reached. Ex. 1 and 7 were administered iv at three times per week for 3 weeks (days 15, 17, 20, 22, 24, 27, 29, and 31), at 3.3, 10, and 33 μmol/kg. Doxorubicin was administered iv at 2 mg/kg using the same schedule. Each data point represents tumor growth (mean±SEM), or body weight (mean), with an initial group size of n=8, from a representative experiment performed twice. An asterisk (*) indicates p<0.05 using a one-tailed Student's t-test.
Toxicity was monitored by recording average group body weights twice weekly, and by daily observation of general health. Efficacy was monitored by taking measurements of tumor length, width, and depth weekly using digital calipers coupled to automated data collectors. Mean tumor volume (MTV) at initiation of therapy was subtracted from final MTV in order to express the actual tumor growth during treatment (Δ MTV). Anti-tumor activity was expressed as % T/C(Δ MTV of treated group÷Δ MTV of control group×100%). Statistical significance was evaluated using a one-tailed Student's t-test (p<0.05).
In general terms: In xenograft studies the graft and the host belong to different species.

Results on two compounds are retold here after patent publication US6599898B2, “Use of certain substituted caprolactam carbonates and ethers in treating tumors” (Novartis AG, priority 2000, dated 2003).

Take `CCCCCOC(=O)O[C@@H]1CC[C@H](NC(=O)[C@H](OC)[C@H](O)[C@@H](O)[C@H](O)/C=C/C(C)(C)C)C(=O)NC1` [Ex. 2, (2R,3R,4S,5R,6E)-3,4,5-trihydroxy-2-methoxy-8,8-dimethyl-N-[(3S,6R)-hexahydro-2-oxo-6-([[pentyloxy]carbonyl]oxy)-2H-azepin-3-yl]non-6-enonamide]: the “% T/C” value with A549 tumor xenografts (10 μmol/kg iv daily) is listed as 32* %; with A549 tumor xenografts (30 μmol/kg iv daily), 46* %.
Usually IC50 stands for the concentration that inhibits the measured activity by half. With `CCCCCCCCCCCOCC(=O)O[C@@H]1CC[C@H](NC(=O)[C@H](OC)[C@H](O)[C@@H](O)[C@H](O)/C=C/C(C)(C)C)C(=O)NC1` [Ex. 7, (2R,3R,4S,5R,6E)-3,4,5-trihydroxy-2-methoxy-8,8-dimethyl-N-[(3S,6R)-hexahydro-2-oxo-6-([[undecyloxy]acetyl]oxy)-2H-azepin-3-yl]non-6-enonamide], the IC50 in test [1] stood at 61 ± 95 nM. The figures for the “% T/C” value in test [2] (3.3 μmol/kg iv), in test [2] (10 μmol/kg iv) and in test [2] (33 μmol/kg iv) were 102%, 64% and 30* %, respectively.
